Reference: patent US11083725B2 (priority 2014, dated 2021)

System: NHBE cells
Assay: Biolog metabolic array: substrate use by NHBE cells with or without CA09 infection
Format: cell-based, human
Details: for Substrate use, 590 nm absorbance normalized to zero hour, 0 hr: Biolog PMM2, 0 hr; for Substrate use, 590 nm absorbance normalized to zero hour, 1 hr: Biolog PMM2, 1 hr; for Substrate use, 590 nm absorbance normalized to zero hour, 5 hr: Biolog PMM2, 5 hr; for Substrate use, 590 nm absorbance normalized to zero hour, 7 hr: Biolog PMM2, 7 hr
[1] = Control (uninfected) NHBE cells
[2] = Virus (CA09-infected, MOI 1) NHBE cells
[3] = Virus: CA09-infected NHBE cells, MOI 1, Biolog PMM2
[4] = Virus (CA09-infected NHBE cells, MOI 1)

Row | SMILES | 590 nm absorbance normalized to zero hour (substrate use), 1 hr [1] | 590 nm absorbance normalized to zero hour (substrate use), 2 hr [1] | 590 nm absorbance normalized to zero hour (substrate use), 3 hr [1] | 590 nm absorbance normalized to zero hour (substrate use), 4 hr [1] | 590 nm absorbance normalized to zero hour (substrate use), 6 hr [1] | 590 nm absorbance normalized to zero hour (substrate use), 8 hr [1] | 590 nm absorbance normalized to zero hour (substrate use), 9 hr [1] | 590 nm absorbance normalized to zero hour (substrate use), 10 hr [1] | 590 nm absorbance normalized to zero hour (substrate use), 11 hr [1] | Substrate use, 590 nm absorbance normalized to zero hour, 1 hr [1] | Substrate use, 590 nm absorbance normalized to zero hour, 5 hr [1] | Substrate use, 590 nm absorbance normalized to zero hour, 7 hr [1] | 590 nm absorbance normalized to zero hour (substrate use), 1 hr [3] | 590 nm absorbance normalized to zero hour (substrate use), 2 hr [3] | 590 nm absorbance normalized to zero hour (substrate use), 3 hr [3] | 590 nm absorbance normalized to zero hour (substrate use), 4 hr [3] | 590 nm absorbance normalized to zero hour (substrate use), 5 hr [3] | 590 nm absorbance normalized to zero hour (substrate use), 6 hr [3] | 590 nm absorbance normalized to zero hour (substrate use), 7 hr [3] | 590 nm absorbance normalized to zero hour (substrate use), 8 hr [3] | other results
1 | CO[C@@H]1O[C@H](CO)[C@H](O)[C@H](O)[C@H]1O [b-Methyl-D-Galactoside] | 0.52 | 0.68 | 0.78 | 0.87 | 1.28 | 1.24 | 1.36 | 1.54 | 1.61 | 0.52 | 1.05 | 1.17 | 0.74 | 0.95 | 1.11 | 1.18 | 1.36 | 1.45 | 1.52 | 1.60 | 590 nm absorbance normalized to zero hour (substrate use), 0 hr [1]: 1.00; Substrate use, 590 nm absorbance normalized to zero hour, 0 hr [1]: 1.00; 590 nm absorbance normalized to zero hour (substrate use), 0 hr [2]: 1.00; 590 nm absorbance normalized to zero hour (substrate use), 1 hr [2]: 0.74; 590 nm absorbance normalized to zero hour (substrate use), 2 hr [2]: 0.95; 590 nm absorbance normalized to zero hour (substrate use), 3 hr [2]: 1.11; 590 nm absorbance normalized to zero hour (substrate use), 4 hr [2]: 1.18; 590 nm absorbance normalized to zero hour (substrate use), 5 hr [2]: 1.36; 590 nm absorbance normalized to zero hour (substrate use), 6 hr [2]: 1.45; 590 nm absorbance normalized to zero hour (substrate use), 7 hr [2]: 1.52; 590 nm absorbance normalized to zero hour (substrate use), 8 hr [2]: 1.60; 590 nm absorbance normalized to zero hour (substrate use), 9 hr [2]: 1.76; 590 nm absorbance normalized to zero hour (substrate use), 10 hr [2]: 1.81; 590 nm absorbance normalized to zero hour (substrate use), 11 hr [2]: 1.96; 590 nm absorbance normalized to zero hour (substrate use), 0 hr [3]: 1.00; 590 nm absorbance normalized to zero hour (substrate use), 9 hr [3]: 1.76; 590 nm absorbance normalized to zero hour (substrate use), 10 hr [3]: 1.81; 590 nm absorbance normalized to zero hour (substrate use), 11 hr [3]: 1.96
2 | OC[C@H]1O[C@@H](OC[C@H]2OC(O)[C@H](O)[C@@H](O)[C@@H]2O)[C@H](O)[C@@H](O)[C@@H]1O (some centres unmarked) [Gentio-biose] | 1.71 | 2.34 | 2.83 | 3.01 | 4.46 | 4.57 | 5.20 | 5.59 | 5.94 | 1.71 | 3.72 | 4.35 | 1.23 | 1.38 | 1.44 | 1.47 | 1.55 | 1.62 | 1.66 | 1.72 | 590 nm absorbance normalized to zero hour (substrate use), 1 hr [4]: 1.23; 590 nm absorbance normalized to zero hour (substrate use), 2 hr [4]: 1.38; 590 nm absorbance normalized to zero hour (substrate use), 3 hr [4]: 1.44; 590 nm absorbance normalized to zero hour (substrate use), 4 hr [4]: 1.47; 590 nm absorbance normalized to zero hour (substrate use), 5 hr [4]: 1.55; 590 nm absorbance normalized to zero hour (substrate use), 6 hr [4]: 1.62; 590 nm absorbance normalized to zero hour (substrate use), 7 hr [4]: 1.66; 590 nm absorbance normalized to zero hour (substrate use), 8 hr [4]: 1.72; 590 nm absorbance normalized to zero hour (substrate use), 9 hr [4]: 1.79; 590 nm absorbance normalized to zero hour (substrate use), 10 hr [4]: 1.85; 590 nm absorbance normalized to zero hour (substrate use), 11 hr [4]: 1.99; 590 nm absorbance normalized to zero hour (substrate use), 9 hr [3]: 1.79; 590 nm absorbance normalized to zero hour (substrate use), 10 hr [3]: 1.85; 590 nm absorbance normalized to zero hour (substrate use), 11 hr [3]: 1.99
3 | O=C(CO)[C@@H](O[C@H]1O[C@H](CO)[C@@H](O)[C@H](O)[C@H]1O)[C@H](O)[C@H](O)CO [Turanose] | 0.23 | 0.31 | 0.36 | 0.40 | 0.49 | 0.51 | 0.57 | 0.57 | 0.60 | 0.23 | 0.55 | 0.44 | 0.20 | 0.28 | 0.34 | 0.36 | 0.44 | 0.48 | 0.51 | 0.56 | 590 nm absorbance normalized to zero hour (substrate use), 0 hr [1]: 1.00; Substrate use, 590 nm absorbance normalized to zero hour, 0 hr [1]: 1.00; 590 nm absorbance normalized to zero hour (substrate use), 0 hr [2]: 1.00; 590 nm absorbance normalized to zero hour (substrate use), 1 hr [2]: 0.20; 590 nm absorbance normalized to zero hour (substrate use), 2 hr [2]: 0.28; 590 nm absorbance normalized to zero hour (substrate use), 3 hr [2]: 0.34; 590 nm absorbance normalized to zero hour (substrate use), 4 hr [2]: 0.36; 590 nm absorbance normalized to zero hour (substrate use), 5 hr [2]: 0.44; 590 nm absorbance normalized to zero hour (substrate use), 6 hr [2]: 0.48; 590 nm absorbance normalized to zero hour (substrate use), 7 hr [2]: 0.51; 590 nm absorbance normalized to zero hour (substrate use), 8 hr [2]: 0.56; 590 nm absorbance normalized to zero hour (substrate use), 9 hr [2]: 0.61; 590 nm absorbance normalized to zero hour (substrate use), 10 hr [2]: 0.60; 590 nm absorbance normalized to zero hour (substrate use), 11 hr [2]: 0.55; 590 nm absorbance normalized to zero hour (substrate use), 0 hr [3]: 1.00; 590 nm absorbance normalized to zero hour (substrate use), 9 hr [3]: 0.61; 590 nm absorbance normalized to zero hour (substrate use), 10 hr [3]: 0.60; 590 nm absorbance normalized to zero hour (substrate use), 11 hr [3]: 0.55
